“Also recorded” adds a separate entry of the source.
Key:
Plasma stability, rat = type: in vitro ADME
Method: (§1) Measurements were performed on human, mouse (CD-1) and rat (SD) microsomes to determine the t1/2, the plasma protein binding (“PPB”) and the plasma stability (“PS”).

Microsome t1/2, rat = type: in vitro ADME; conditions: Rat (SD) microsomes
Method: (§2) The pharmacokinetic activity profile of Compound 8 was assessed by various standard in vitro measurements. Measurements were performed on human, mouse (CD-1) and rat (SD) microsomes to determine the t1/2, the plasma protein binding (“PPB”) and the plasma stability (“PS”).

alpha-TC-1-6 = experiment: Luminescent glucagon secretion assay in alpha-cell line; type: cell-based; conditions: compared with DMSO negative control
Method: FIG. 10 depicts the quantification of α-cell secretory activity in cells treated with DMSO, KCl, or Compound 8, using a luminescent assay for glucagon secretion.
To investigate the cell-type specificity of the compound, and to exclude the possibility that Compound 8 acts as a generic secretagogue, the compound was tested on secretion from a rodent alpha-cell line, “alpha-TC-1-6,” using a luciferase reporter for glucagon secretion that mirrors the insulin secretion assay (FIG. 10).

[1] = test system: Mouse MING insulinoma cells; experiment: Calcium influx assay (Fluo-4, FLIPR Tetra); type: cell-based
Method: Mouse MING insulinoma cells were cultured in DMEM medium supplemented with 10% FBS, 100 U/mL penicillin, 100 μg/mL streptomycin, and 55 μM β-mercaptoethanol. Two days prior to the experiment, cells were seeded in 384-well clear-bottom microplates at 17,500 cells/well. For calcium imaging, microplates were washed three times with Hanks' Balanced Salt Solution (HBSS, containing Ca^2+/Mg^2+) using the CyBio Well vario plate washer. Cells were loaded with 2 μM of the calcium indicator Fluo-4 for 1 hour at 37° C. in Krebs-Ringer buffer (KRB) with 3 g/L glucose. After dye loading, the cells were washed again with HBSS and incubated in KRB with 0.5 g/L glucose for 30 minutes at 37° C. (glucose starvation conditions). After glucose starvation, microplates were transferred to FLIPR Tetra, where an automated 384-well dispensing unit added glucose (glucose stimulation conditions) together with Compound 8. Positive control measurements (“+CNT”) were performed in wells with ionomycin to prompt calcium influx without the presence of glucose. Negative control measurements (“−CNT”) were also performed in wells with Compound 8 present in and without glucose. All wells were read simultaneously at 1 Hz intervals. FIG. 20 illustrates the fold increase of measured calcium over baseline measurements performed in the absence of glucose. […] Without wishing to be bound by theory, it is believed that insulin secretagogues acts between KATP channels stimulated by glucose, and the calcium channels that induce insulin secretion.

Plasma stability, mouse = type: in vitro ADME
Method: as §1

IP-1 = IP-1 secondary messenger level in treated cells; type: cell-based; conditions: treated cells (data not shown)
Description: (§3) Further investigation into Compound 8 included measuring levels of the secondary messengers cAMP (FIG. 9) and IP-1 (not shown) in treated cells, as compounds that increase these secondary messengers are known to augment insulin secretion, though often in ways that are not beta-cell specific.

Microsome t1/2, mouse = type: in vitro ADME; conditions: Mouse (CD-1) microsomes
Method: as §2

Microsome t1/2, human = type: in vitro ADME; conditions: Human microsomes
Method: as §2

cAMP = cAMP HTRF assay (Cisbio); type: cell-based; conditions: HTRF competition assay; increase in cAMP seen as decrease in signal
Description: FIG. 9 depicts the quantification of cAMP activity in cells treated with the indicated compound in a HTRF assay from Cisbio.
as §3
CellTiter-Glo (Promega) and the cAMP Dynamic-2 HTRF assay (Cisbio) were used according to the manufacturers' instructions. Luciferase secretion and CellTiter-Glo experiments were performed using a 1 hr incubation with compound, whereas the cAMP assay was performed using a 30 min incubation. Secretion experiments were run in KRB buffer; all other experiments were run in standard INS-1E medium.

Plasma stability, human = type: in vitro ADME
Method: as §1

C57B6/J mice = experiment: In vivo efficacy, glucose tolerance test; parameters: species or system mouse; conditions: 2 mg/kg tail vein injection, compared to control (vehicle)
Method: Three-month-old male C57B6/J mice of body weight ranging from 20 to 25 g were housed in plastic polycarbonate cages. The animals were maintained at 25° C. with a 12-hour dark, 12-hour light schedule with food and water available ad libitum.
After two weeks of adaptation, the animals were randomly divided into two treatment groups (vehicle and Compound 8 in vehicle) with 5 mice per group. Mice were fasted for 16 hours (overnight) and basal blood glucose level was measured by tail vein nick using the AlphaTRAK 2 glucometer. Animals were given Compound 8 (2 mg/kg body weight) in vehicle or vehicle alone (7.5% NMP, 7.5% Solutol HS-15, 85% normal saline) by tail vein injection. Glucose tolerance tests (GTT) were performed 10 minutes after injection. Animals were given glucose at a dose of 1 g/kg body weight by intraperitoneal injection. Blood glucose was measured using the glucometer immediately before glucose injection, and at 15, 30, 60, and 120 minutes after injection (FIGS. 19A and 19C). At the 0, 15, and 30 minute time points, blood samples for insulin measurements were collected into EDTA-coated tubes and centrifuged at 9000 rpm to separate plasma, which was then stored at −80° C. until analysis. Insulin levels in plasma were analyzed using the ultra-sensitive mouse insulin ELISA kit (Crystal Chem) (FIGS. 19B and 19D). […]

dissociated human islets = experiment: Insulin secretion from dissociated human islets, insulin ELISA; type: cell-based
Method: Forskolin is included as a positive control.
Human islets were obtained through the Integrated Islet Distribution Program. Islets were maintained and dissociated in 96-well format as described (Walpita et al., J Biomol Screen 17: 509-518 2012). To test compounds for their effects on insulin secretion, the dissociated islets were washed gently in KRB and preincubated for 1 hr at 37° C. in KRB with 2.8 mM glucose. The cells were then washed twice with zero-glucose KRB and placed in 100 μl of fresh KRB with varied glucose concentrations plus compounds. After a 1 hr incubation at 37° C., the supernatant was removed, and insulin concentration was measured by ELISA (Mercodia) according to the manufacturer's instructions.

PS (Plasma stability, rat): 97.5 % remaining
half-life (Microsome t1/2, rat): 3.62 h
PS (Plasma stability, mouse): 96.0 % remaining
half-life (Microsome t1/2, mouse): 4.6 h
half-life (Microsome t1/2, human): 19.3 h
PS (Plasma stability, human): 106.2 % remaining
SMILES: Cc1cccc(NC(=O)c2ccc(OCc3c(C)noc3C)cc2)c1C [Compound 8]
alpha-cell secretory activity (luciferase reporter for glucagon secretion) (alpha-TC-1-6): not to augment luciferase secretion; also recorded: insignificant change from DMSO negative control
calcium influx in β-cells in the presence of glucose ([1]; glucose stimulation conditions (16.7 mM glucose), 1 μM, 10 μM): does promote calcium influx
dose dependence of calcium influx in beta cells ([1]; only in the presence of glucose): dose dependent response
calcium influx in β-cells in the absence of glucose ([1]; without glucose): does not invoke a calcium influx
IP-1 level (IP-1): did not increase levels
cAMP level (cAMP): did not increase levels
glucose concentration area under the curve (AUC) (C57B6/J mice; GTT 1 g/kg glucose i.p.): decreased
insulinogenic index (C57B6/J mice; GTT): increase
insulin secretion, human islets from nondiabetic donors (dissociated human islets; normal donors): significant increase in glucose-dependent insulin secretion; also recorded: dose-dependent effect
insulin secretion, human islets from type 2 diabetic donors (dissociated human islets; type 2 diabetes donors): significant increase in glucose-dependent insulin secretion; also recorded: increases insulin secretion
